Results taken from patent publication US20250049791A1, “Synthesis of MEK7 Inhibitors and methods of Use Thereof” (Northwestern University, priority 2023, published 2025).
“Also recorded” adds a separate entry of the source. Read-outs that look alike come from different tables or passages of the source.

Key:
[1] = molecular target: T1, recombinant active full-length human MEK7 (Homo sapiens, UniProt O14733); test: ADP-Glo kinase activity assay, MEK7 with JNK1 substrate; type: biochemical
T1 construct: recombinant active full-length human MEK7 (Carna Biosciences); purchased Carna Biosciences
T1 sequence (O14733 1-419): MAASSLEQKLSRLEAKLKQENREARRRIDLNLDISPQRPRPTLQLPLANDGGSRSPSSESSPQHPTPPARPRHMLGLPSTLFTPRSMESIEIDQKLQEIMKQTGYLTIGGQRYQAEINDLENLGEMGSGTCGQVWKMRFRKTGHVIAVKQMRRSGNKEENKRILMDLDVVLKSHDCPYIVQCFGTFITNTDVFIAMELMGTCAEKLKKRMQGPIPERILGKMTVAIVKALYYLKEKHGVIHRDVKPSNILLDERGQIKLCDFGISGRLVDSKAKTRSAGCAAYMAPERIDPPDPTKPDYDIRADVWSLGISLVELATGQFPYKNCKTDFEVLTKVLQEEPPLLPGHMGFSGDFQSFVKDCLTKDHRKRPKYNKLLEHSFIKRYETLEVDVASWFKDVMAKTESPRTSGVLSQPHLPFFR
Experimental: Procedure for a 5 μL Kinase reaction using the ADP-Glo Kinase Assay Kit from Promega. Staurosporine was used as the positive control, and DMSO (vehicle) was employed as the negative control. Activity of recombinant active full-length human MEK7 (Carna Biosciences) was measured with recombinant full-length human substrate JNK1 (MAPK8). Using a Mantis, a mixture of MEK7 and JNK1 was dispensed into a 384-well low volume white Proxiplate. For each well, 4 ng of MEK7 and 600 ng of JNK1 in kinase buffer (CST) were used, accounting for 1 μL of this mixture per well. Inhibitor was prepared in a DMSO solution (40 mM). A dose-response dilution was performed in a 384-well Echo transfer plate. Using an Echo Access, 10 nL of each solution was dispensed into the same 384-well low volume white Proxiplate as above. This mixture was allowed to incubate for 30 minutes at room temperature. Using a Mantis, 1 uL of an 8 μM ATP solution was added to each well, and the plate was allowed to incubate for another 1 hour at room temperature. Using the Mantis again, 4 μL of ADP Glo Reagent was dispensed into each well, and the plate was allowed to incubate for 45 min at room temperature. Finally, 9 μL of Kinase Detection Reagent was added manually to each well, and the plate was allowed to incubate for 45 minutes at room temperature. Luminescence was read on a Synergy Neo2 Plate Reader with filter cubes 3 and 114. Integration time was set to 0.20 seconds, gain set to 160, and read height set at 6 mm. All experiments were performed in triplicate on the plate, and at least in one separate technical duplicate was performed.
MEK4 selectivity was performed in the same manner with activated MEK4 (Carna Biosciences). Here, p-38α was employed as the kinase substrate in lieu of JNK1 due to the availability of reagents. […] To probe the ATP-competitive nature of 25, this compound was subjected to a similar assay forgoing the 30 minute incubation time described above (STAR Protocols 2021, 2, 100717). The results are tabulated below in compound characterization. Potency determined by duplicate of triplicates corresponded to a IC50 value, which is in line with the ratio difference observed among other covalent inhibitors (for examples, see Cell Chem. Biol. 2020, 27, 1285).

[2] = test system: JNK and ATF2 phosphorylation in T-ALL cells; test: Immunoblot analysis of JNK and ATF2 phosphorylation; type: cell-based
Experimental: Cells were lysed with SDS lysis buffer containing (10 mM Tris pH 7.4 containing 1% SDS and 1 mM PMSF) and supplemented with Halt Protease and Phosphatase Inhibitor Cocktail (ThermoFisher) after 24 h of incubation. Protein lysates were electrophoresed onto SDS PAGE gel and transferred to the PVDF membrane using the iBLOT system. Antibodies phospho-SAPK/JNK (clone 81E11) (#4668) and SAPK/JNK (#9252) were used at 1:5000 dilution. Secondary antibodies cross-linked with HRP (anti-rabbit IgG #7074 and anti-mouse IgG #7076) were used for respective primary antibodies at concentrations 1:20,000. Protein detection was performed using West Femto Maximum Sensitivity Substrate (ThermoFisher) and Amersham Hyperfilm ECL (GE).

[3] = test system: 90 wildtype kinases; test: ScanEDGE 97-kinase selectivity screen (DiscoverX/Eurofins), panel and S-score; type: binding
From the text: (§1) The ScanEDGE assay, completed by DiscoverX (Eurofins) is a proprietary active site-directed competition binding assay. Compounds that bind the kinase active site prevent kinase binding to the immobilized ligand, reducing the amount of kinase captured on the solid support. Hits are identified by measuring the amount of kinase captured in experimental vs, control samples by a qPCR method that detects an associated DNA label. According to data provided by Eurofins, a typical hit at 5-10% of control signal in a 1 μM assay as shown above is generally associated with a KD in the range of 100-1,000 nM. Readings with greater than 35% of control signal correspond to exceeding large dissociation constants.
Selectivity score (or S-score) is a quantitative measure of compound selectivity corresponding to the ratio of hits to the number of screened wildtype kinases.

[4] = molecular target: T2, EGFR (L858R) mutant (Homo sapiens, UniProt P00533, L858R); test: ScanEDGE competition binding, EGFR (L858R); parameters: dose or concentration left out as unconfirmed
T2 construct: purchased DiscoverX (Eurofins)
From the text: as §1

[5] = molecular target: T3, EGFR (Homo sapiens, UniProt P00533); test: ScanEDGE competition binding, EGFR; settings: at 1 μM; b168 prints 1 M
T3 construct: purchased DiscoverX (Eurofins)
From the text: as §1

[6] = molecular target: T4, MEK5 (Homo sapiens, UniProt Q13163); test: Additional selectivity assay, MEK5 (FIG. 9); type: binding
T4 sequence (Q13163 1-448): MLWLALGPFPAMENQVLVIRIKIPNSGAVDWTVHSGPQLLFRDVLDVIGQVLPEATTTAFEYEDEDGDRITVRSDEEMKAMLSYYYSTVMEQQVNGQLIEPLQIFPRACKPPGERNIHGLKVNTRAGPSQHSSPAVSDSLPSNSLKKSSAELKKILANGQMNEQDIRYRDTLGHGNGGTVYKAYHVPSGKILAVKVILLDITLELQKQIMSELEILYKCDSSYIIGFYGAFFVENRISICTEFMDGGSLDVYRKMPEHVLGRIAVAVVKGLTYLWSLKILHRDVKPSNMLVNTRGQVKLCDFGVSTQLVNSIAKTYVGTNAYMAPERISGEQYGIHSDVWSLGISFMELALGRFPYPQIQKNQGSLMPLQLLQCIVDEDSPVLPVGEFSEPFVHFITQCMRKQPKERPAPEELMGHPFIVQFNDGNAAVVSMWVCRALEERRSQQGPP

T3 sequence (P00533 25-1210): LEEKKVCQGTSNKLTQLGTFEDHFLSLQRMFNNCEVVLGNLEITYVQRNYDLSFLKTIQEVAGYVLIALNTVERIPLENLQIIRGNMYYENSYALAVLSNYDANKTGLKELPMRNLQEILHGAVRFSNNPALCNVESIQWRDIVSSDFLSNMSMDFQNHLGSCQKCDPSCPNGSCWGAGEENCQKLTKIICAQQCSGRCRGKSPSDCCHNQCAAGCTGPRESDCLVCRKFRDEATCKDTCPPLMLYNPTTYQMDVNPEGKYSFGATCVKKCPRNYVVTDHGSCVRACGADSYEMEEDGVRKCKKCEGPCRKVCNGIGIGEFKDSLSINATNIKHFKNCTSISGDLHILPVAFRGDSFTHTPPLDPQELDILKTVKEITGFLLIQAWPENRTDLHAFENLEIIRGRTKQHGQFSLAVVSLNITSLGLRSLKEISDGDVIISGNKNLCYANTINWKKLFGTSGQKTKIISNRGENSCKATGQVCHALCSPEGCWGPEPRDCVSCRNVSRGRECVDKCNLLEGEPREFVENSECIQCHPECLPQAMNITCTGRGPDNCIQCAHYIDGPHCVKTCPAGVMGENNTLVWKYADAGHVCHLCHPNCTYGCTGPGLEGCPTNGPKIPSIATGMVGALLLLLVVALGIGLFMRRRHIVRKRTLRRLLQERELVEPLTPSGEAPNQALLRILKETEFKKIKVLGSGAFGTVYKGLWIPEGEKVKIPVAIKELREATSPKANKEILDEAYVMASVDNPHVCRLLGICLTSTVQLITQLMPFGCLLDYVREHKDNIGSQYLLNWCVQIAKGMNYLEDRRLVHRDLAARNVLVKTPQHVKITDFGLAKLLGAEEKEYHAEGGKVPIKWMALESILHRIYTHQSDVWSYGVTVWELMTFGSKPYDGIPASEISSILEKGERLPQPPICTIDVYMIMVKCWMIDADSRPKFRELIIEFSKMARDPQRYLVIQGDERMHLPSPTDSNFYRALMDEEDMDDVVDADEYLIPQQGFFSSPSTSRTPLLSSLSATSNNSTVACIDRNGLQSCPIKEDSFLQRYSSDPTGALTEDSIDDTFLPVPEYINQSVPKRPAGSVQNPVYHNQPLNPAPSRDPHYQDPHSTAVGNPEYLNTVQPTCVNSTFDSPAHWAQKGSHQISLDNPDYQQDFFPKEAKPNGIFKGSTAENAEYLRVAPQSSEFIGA
T2 sequence (P00533 25-1210 L858R): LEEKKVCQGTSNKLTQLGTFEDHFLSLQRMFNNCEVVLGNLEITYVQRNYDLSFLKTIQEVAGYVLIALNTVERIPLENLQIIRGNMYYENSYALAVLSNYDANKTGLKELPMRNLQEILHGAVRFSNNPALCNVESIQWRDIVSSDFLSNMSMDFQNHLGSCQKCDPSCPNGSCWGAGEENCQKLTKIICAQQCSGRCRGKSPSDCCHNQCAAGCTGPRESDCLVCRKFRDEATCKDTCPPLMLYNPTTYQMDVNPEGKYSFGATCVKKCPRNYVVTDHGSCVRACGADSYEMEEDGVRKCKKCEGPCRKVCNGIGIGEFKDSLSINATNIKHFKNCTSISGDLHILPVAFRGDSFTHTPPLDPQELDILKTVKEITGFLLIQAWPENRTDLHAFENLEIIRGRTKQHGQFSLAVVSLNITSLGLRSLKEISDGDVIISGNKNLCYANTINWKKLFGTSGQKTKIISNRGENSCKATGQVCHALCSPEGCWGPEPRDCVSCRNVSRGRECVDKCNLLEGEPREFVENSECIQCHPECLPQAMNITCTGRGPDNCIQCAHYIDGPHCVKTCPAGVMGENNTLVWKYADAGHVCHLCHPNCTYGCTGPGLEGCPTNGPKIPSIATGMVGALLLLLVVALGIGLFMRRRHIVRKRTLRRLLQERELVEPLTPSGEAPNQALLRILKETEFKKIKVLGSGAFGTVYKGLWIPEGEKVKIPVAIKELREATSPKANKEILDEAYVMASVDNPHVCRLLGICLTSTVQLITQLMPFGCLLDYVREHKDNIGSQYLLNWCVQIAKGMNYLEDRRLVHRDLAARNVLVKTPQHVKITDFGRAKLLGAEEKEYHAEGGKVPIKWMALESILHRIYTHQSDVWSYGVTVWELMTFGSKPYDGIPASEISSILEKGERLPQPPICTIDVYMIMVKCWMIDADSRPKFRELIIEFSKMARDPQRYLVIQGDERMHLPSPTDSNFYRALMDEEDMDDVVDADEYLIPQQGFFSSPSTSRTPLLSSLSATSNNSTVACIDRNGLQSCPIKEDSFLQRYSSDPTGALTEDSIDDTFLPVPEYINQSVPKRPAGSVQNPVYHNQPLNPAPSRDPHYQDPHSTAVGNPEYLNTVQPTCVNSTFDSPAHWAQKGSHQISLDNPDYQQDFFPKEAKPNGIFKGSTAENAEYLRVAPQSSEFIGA

O=C(CCl)Nc1cccc(Oc2cc(NCc3ccccc3)ncn2)c1 [Compound 25, N-(3-((6-(benzylamino)pyrimidin-4-yl)oxy)phenyl)-2-chloroacetamide]
IC50 ([1]; 30 min preincubation, read-out: MEK7 IC50): 10 nM | IC50 ([1]; MEK7 IC50, first experiment (IC50±SEM, n=3), 30 min preincubation, first value in brackets): 17 nM | IC50 ([1]; MEK7 IC50, second experiment (IC50±SEM, n=3), 30 min preincubation, second value in brackets): < 1.4 nM | IC50 ([1]; MEK7 IC50 without preincubation, first experiment (n=3), without preincubation, first value in brackets): 67 ± 21 nM | IC50 ([1]; MEK7 IC50 without preincubation, second experiment (n=3), without preincubation, second value in brackets): 119 nM | IC50 ([1]; without 30 min preincubation, overall value, read-out: MEK7 IC50 without preincubation): 93 nM | IC50 ([1]; without preincubation, no unit printed, read-out: MEK7 IC50 without preincubation): 93 nM | concentration that potently attenuated JNK and ATF2 phosphorylation ([2]; 24 h incubation): 5 to 10 µM | effect on phosphorylation of JNK and ATF2 ([2]; western blot, dose-response): decreased phosphorylation | Number of Hits, S(1) ([3]; 1000 nM, 90 non-mutant kinases): 0 | Number of Hits, S(10) ([3]; 1000 nM, 90 non-mutant kinases): 1 | Number of Hits, S(35) ([3]; 1000 nM, 90 non-mutant kinases): 1 | Selectivity Score S(10) ([3]; 1000 nM, 90 non-mutant kinases): 0.011 | Selectivity Score S(35) ([3]; 1000 nM, 90 non-mutant kinases): 0.011 | selectivity score after adding MEK3, MEK5 and MEK6 (1/93) ([3]; 93 kinases): 0.011 | binding to EGFR (L858R) mutant [4]: interacted significantly | binding to EGFR [5]: interacted significantly; also recorded: appreciably bound | activity/binding at MEK5 [6]: inactive; also recorded: lack of binding
